This is an account of results in patent US20180228720A1, “MELANOGENESIS INHIBITOR” (TAKASAGO INTERNATIONAL CORPORATION, priority 2015, published 2018).

The test system of one series is melanin production. To be noted: background art, Patent Documents 2 to 4; cited from earlier work.
Series [1] concerns melanocyte-containing human three-dimensional cultured epidermal model, LabCyte MELANO-MODEL 24. Nature of the series: Skin-whitening activity using melanocyte-containing human three-dimensional cultured epidermal tissue (amount of melanin, number of living cells by MTT). The class given is cell-based. To be noted: sample 0.10% (positive control), 2 weeks culture, relative to negative control. The protocol: A melanocyte-containing human three-dimensional cultured epidermal model, LabCyte […]-MODEL 24 (manufactured by Japan Tissue Engineering Co., Ltd.) was cultured in accordance with an instruction manual. That is, a culture cup having a human cultured epidermis charged therein was soaked in 1.5 mL of an improved melanin production-promoting medium, and an evaluation sample was added in the cup and exposed, followed by culture at 37° C. for 2 weeks in the presence of 5% carbon dioxide. The medium and the evaluation sample were exchanged once every two to three days. After completion of the culture, the number of living cells and the amount of melanin were measured according to the MTT assay by a method described in the instruction manual. Each measured value was calculated as a relative value (%) relative to a value of a negative control in which the evaluation sample was not exposed. The evaluation was performed by three times repetition.

In another series the test system is B-16 melanoma cells. In words: Evaluation for melanin production-inhibitory activity against pigment cells. It counts as cell-based. To be noted: cultured 4 days with sample, relative to negative control. The protocol: With respect to the components (compounds) of Examples 1 to 3 and Reference Example 1 shown in Table 1, the following test was performed, thereby studying the evaluation for melanin production-inhibitory activity.
In a plastic culture flask (25 cm^2), B-16 melanoma cells in a number of 1×10^5 were seeded and cultured in a 10% serum-containing DMEM medium (manufactured by Nippon Suisan Kaisha, Ltd.) in the presence of 5% carbon dioxide at 37° C. One day after the culture, an evaluation sample diluted with ethanol was added, and the cells were further cultured for 4 days. After completion of the culture, the medium was removed, and the cells were rinsed with PBS (phosphate buffer solution). Thereafter, the cells were detached from the plate by using a medium containing trypsin and EDTA (ethylenediaminetetraacetic acid) and harvested by means of centrifugation. The resulting cells were rinsed three times with 1 mL of 5% trichloroacetic acid controlled at 4° C., rinsed twice with 1 mL of an ethanol/diethyl ether (3/1) solution, and then rinsed once with 1 mL of diethyl ether. After drying, 1 mL of 2N sodium hydroxide was added to dissolve the cells at 60° C. After allowing the solution to stand for cooling, an absorbance at 415 nm was measured, thereby measuring the amount of melanin. Each measured value was calculated as a relative value (%) relative to a value of a negative control in which the evaluation sample was not exposed. The evaluation was performed by three times repetition.

For `C=CC(C)(O)CCC=C(C)CCC=C(C)C` (stereo not shown) [nerolidol], the “Effect on melanin production (in words)” value with melanin production was “exhibits a melanin production-inhibitory effect”.

Turning to `O=c1cc(CO)occ1O` [Kojic acid], in series [1] (MTT assay), the “Number of living cells (%)” value was determined as 92.3 ± 8.8%. In addition, the “Amount of melanin (%)” value in series [1] was determined as 48.4 ± 4.0%.

As for `OC[C@H]1O[C@@H](Oc2ccc(O)cc2)[C@H](O)[C@@H](O)[C@@H]1O` [Arbutin], the “Melanin inhibition ratio (%)” value was 39% in the series on B-16 melanoma cells (3.13 μg/mL), 50% with B-16 melanoma cells (6.25 μg/mL) and 71% in the series on B-16 melanoma cells (12.5 μg/mL).

Turning to `C[C@@H]1CC[C@H]2C(C)(C)[C@H]3C[C@@]12CC[C@@]3(C)O` [cedrol], the “Effect on melanin production (in words)” value in the series with melanin production is “exhibits a melanin production-inhibitory effect”.
